Experimental data taken from ChEMBL document CHEMBL4004792, “Monascustin, an Unusual γ-Lactam from Red Yeast Rice” (J Nat Prod, 2017).
pIC50: −log10 of the molar value. Active and inactive are the calls of the source. No cut-off for these calls is given here.

Key:
[1] = test system: Peritoneal macrophage; assay: Inhibition of LPS-stimulated TNFalpha secretion in C57BL6J mouse peritoneal macrophages at 50 uM after 24 hrs; assay type: functional, cell-based
[2] = test system: A549; assay: Cytotoxicity against human A549 cells at 10 uM after 24 hrs by MTT assay; assay type: functional, cell-based
[3] = target: Histone deacetylase 1 (Homo sapiens, UniProt Q13547); assay: Inhibition of human HDAC1 using H3(1-21)K9 after 60 mins by fluorescence assay
Chain of Histone deacetylase 1 (Q13547 whole entry): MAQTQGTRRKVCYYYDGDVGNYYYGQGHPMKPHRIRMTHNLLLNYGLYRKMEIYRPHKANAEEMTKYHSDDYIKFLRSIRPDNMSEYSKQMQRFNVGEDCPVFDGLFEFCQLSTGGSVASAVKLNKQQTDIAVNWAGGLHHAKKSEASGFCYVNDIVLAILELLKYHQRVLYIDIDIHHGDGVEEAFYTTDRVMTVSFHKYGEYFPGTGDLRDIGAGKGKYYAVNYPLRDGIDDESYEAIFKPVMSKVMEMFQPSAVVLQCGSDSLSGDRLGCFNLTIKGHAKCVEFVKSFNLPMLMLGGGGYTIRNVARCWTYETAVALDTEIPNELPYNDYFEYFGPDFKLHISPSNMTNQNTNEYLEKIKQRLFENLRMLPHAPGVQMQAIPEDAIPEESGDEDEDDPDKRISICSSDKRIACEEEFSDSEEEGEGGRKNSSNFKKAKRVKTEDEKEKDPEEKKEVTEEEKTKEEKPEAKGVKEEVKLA

[4] = test system: Bel-7402; assay: Cytotoxicity against human Bel7402 cells at 10 uM after 24 hrs by MTT assay; assay type: functional, cell-based
[5] = test system: HCT-8; assay: Cytotoxicity against human HCT8 cells at 10 uM after 24 hrs by MTT assay; assay type: functional, cell-based
[6] = test system: A2780; assay: Cytotoxicity against human A2780 cells at 10 uM after 24 hrs by MTT assay; assay type: functional, cell-based
[7] = test system: BGC-823; assay: Cytotoxicity against human BGC823 cells at 10 uM after 24 hrs by MTT assay; assay type: functional, cell-based

For CC(C)C[C@@]1(C(N)=O)NC(=O)C[C@]1(C)O, which inhibition [1] is on record?
The inhibition was “inactive”.

And the Activity [2]?
Its Activity is “inactive”.

What about the pIC50 [3] of the same molecule?
The pIC50 was 5.43.

And the Activity [4]?
Its Activity is “inactive”.

What about the Activity [5] of the same molecule?
The Activity was “inactive”.

And the Activity [6]?
The Activity was “inactive”.

And the Activity [7]?
Its Activity is “inactive”.
